# According to US20240358727A1, “MICROSCALE THERMOPHORESIS TO EVALUATE CHANNEL LIPID INTERACTIONS AND METHODS OF TREATING NAV CHANNELS RELATED DISEASES” (Northeastern University, priority 2023, published 2024):
# Biological target: T1, WT-Nav1.5 (Homo sapiens, UniProt Q14524)
# T1 construct: expressed in transfected cells; host or cells: HEK293T
# Assay: Whole-cell patch-clamp ILATE of wild type Nav1.5 in HEK293T cells with CRY2-5POCRL
# Format: cell-based
# Settings: diC8-PIP2 in pipette
# Method: This is opposed when by 200 μM diC8-PIP2 in the pipette. Comparisons are Students t-test, *** P<0.01, ****P0.001 for 4-6 cells per group.
# Results. Our studies were designed to evaluate PIP2-regulation for Nav1.5 channelopathies from multiple perspectives. Given that there is a lack of structural data to identify where, or how many PIP2 molecules bind to Nav1.5, we performed a docking simulation to identify putative PIP2 binding sites in the open, rat and human Nav1.5 cryoEM structures (PDB: 6UZ3 and 7DTC) (56-58). We observed four potential PIP2 binding sites at the boundary between the inner leaflet of the membrane and the cytoplasm with one at the interface between each voltage sensor and the channel body. In each case, we noted electrostatic and hydrogen bond interactions between the headgroup of PIP2 and multiple disease associated residues. Among these, we elected to perform functional studies on Nav1.5-R1644C, an LQT3 mutant located between the S4 and S5 transmembrane segments of DIV. We expressed wild type Nav1.5 or Nav1.5-R1644C with Nav1β, CIBN-CAAX and CRY2-5POCRL in HEK293T cells and studied ILATE with and without optogenetic dephosphorylation of PIP2. In wild-type Nav1.5, ILATE was 0.25±0.1% of the peak (n=8) whereas in Nav1.5-R1664C, ILATE was 1.2±0.2% of peak (n=8, P<0.01, unpaired t-test comparison to WT). […]
# T1 sequence (Q14524 whole entry): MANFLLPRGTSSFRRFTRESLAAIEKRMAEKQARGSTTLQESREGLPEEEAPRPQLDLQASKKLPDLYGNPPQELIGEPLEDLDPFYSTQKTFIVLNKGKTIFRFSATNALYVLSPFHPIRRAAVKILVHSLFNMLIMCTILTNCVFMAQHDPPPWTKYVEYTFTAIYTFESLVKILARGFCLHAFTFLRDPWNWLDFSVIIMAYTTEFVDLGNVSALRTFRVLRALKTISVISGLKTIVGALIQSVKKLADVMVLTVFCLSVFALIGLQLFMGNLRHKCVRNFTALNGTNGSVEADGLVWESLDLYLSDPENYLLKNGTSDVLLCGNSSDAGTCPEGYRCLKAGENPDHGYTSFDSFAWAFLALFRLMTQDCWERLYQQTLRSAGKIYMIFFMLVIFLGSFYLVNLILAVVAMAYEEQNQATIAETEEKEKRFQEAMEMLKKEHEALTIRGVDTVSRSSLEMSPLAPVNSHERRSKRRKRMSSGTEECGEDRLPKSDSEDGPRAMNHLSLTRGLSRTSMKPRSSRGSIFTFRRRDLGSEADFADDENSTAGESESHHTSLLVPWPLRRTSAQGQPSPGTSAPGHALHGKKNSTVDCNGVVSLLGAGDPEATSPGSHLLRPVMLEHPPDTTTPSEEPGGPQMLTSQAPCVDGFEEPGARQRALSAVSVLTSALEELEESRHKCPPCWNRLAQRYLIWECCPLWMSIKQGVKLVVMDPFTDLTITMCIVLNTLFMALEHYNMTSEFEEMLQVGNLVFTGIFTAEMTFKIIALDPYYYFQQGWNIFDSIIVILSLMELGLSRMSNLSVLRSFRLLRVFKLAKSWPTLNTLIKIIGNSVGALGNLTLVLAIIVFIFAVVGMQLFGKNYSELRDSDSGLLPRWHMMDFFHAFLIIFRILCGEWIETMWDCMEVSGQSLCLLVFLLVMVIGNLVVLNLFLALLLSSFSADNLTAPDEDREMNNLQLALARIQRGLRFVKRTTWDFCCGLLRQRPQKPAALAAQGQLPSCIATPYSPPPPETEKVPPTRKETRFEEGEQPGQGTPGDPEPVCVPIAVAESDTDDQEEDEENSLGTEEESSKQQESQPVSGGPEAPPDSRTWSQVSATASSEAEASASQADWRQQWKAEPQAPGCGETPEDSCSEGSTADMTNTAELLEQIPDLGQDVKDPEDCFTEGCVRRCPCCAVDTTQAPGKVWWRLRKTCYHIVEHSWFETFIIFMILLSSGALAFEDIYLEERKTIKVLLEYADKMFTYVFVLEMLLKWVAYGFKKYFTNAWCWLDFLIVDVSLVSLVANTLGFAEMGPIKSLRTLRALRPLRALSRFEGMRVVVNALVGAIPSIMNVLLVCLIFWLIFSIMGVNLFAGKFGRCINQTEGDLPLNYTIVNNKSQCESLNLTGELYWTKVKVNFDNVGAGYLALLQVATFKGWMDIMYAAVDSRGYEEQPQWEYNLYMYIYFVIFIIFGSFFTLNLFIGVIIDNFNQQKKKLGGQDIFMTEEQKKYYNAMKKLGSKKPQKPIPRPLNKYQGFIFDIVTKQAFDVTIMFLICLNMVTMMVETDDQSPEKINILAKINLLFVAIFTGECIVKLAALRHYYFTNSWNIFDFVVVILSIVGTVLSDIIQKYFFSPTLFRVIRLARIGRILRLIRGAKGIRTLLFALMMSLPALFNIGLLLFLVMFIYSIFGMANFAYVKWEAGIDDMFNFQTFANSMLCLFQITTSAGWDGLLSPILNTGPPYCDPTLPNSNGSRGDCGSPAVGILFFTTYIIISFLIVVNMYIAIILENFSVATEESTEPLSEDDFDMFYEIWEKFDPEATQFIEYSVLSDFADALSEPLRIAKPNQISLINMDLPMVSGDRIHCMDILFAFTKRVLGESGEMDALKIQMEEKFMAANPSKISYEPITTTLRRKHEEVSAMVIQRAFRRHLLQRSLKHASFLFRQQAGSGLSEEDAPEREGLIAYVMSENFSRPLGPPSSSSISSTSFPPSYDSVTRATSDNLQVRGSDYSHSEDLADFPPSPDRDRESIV
smiles,measurement,value
CCCCCCCC(=O)OC[C@H](COP(=O)(O)O[C@@H]1[C@H](O)[C@H](O)[C@@H](OP(=O)(O)O)[C@H](OP(=O)(O)O)[C@H]1O)OC(=O)CCCCCCC [diC8-PIP2],effect on ILATE increase when PIP2 is dephosphorylated,opposed
